Like-named read-outs stand apart in the source and are kept apart here. Bridges are numbered along the chain shown (N, C = ends). Where no end group is shown, it is not given here.

Assay [1] concerns the target N-type calcium channels in cell membranes isolated from rat brain (Rattus norvegicus, UniProt Q02294). Format: binding.
In assay [2] the target is P/Q-type calcium channels (Homo sapiens, UniProt O00555). The settings on record: cited from earlier work.
The target in the next assay is N-type calcium channels (Homo sapiens, UniProt Q00975). The settings on record: cited from earlier work.

Chain of N-type calcium channels in cell membranes isolated from rat brain (Q02294 whole entry, looked up): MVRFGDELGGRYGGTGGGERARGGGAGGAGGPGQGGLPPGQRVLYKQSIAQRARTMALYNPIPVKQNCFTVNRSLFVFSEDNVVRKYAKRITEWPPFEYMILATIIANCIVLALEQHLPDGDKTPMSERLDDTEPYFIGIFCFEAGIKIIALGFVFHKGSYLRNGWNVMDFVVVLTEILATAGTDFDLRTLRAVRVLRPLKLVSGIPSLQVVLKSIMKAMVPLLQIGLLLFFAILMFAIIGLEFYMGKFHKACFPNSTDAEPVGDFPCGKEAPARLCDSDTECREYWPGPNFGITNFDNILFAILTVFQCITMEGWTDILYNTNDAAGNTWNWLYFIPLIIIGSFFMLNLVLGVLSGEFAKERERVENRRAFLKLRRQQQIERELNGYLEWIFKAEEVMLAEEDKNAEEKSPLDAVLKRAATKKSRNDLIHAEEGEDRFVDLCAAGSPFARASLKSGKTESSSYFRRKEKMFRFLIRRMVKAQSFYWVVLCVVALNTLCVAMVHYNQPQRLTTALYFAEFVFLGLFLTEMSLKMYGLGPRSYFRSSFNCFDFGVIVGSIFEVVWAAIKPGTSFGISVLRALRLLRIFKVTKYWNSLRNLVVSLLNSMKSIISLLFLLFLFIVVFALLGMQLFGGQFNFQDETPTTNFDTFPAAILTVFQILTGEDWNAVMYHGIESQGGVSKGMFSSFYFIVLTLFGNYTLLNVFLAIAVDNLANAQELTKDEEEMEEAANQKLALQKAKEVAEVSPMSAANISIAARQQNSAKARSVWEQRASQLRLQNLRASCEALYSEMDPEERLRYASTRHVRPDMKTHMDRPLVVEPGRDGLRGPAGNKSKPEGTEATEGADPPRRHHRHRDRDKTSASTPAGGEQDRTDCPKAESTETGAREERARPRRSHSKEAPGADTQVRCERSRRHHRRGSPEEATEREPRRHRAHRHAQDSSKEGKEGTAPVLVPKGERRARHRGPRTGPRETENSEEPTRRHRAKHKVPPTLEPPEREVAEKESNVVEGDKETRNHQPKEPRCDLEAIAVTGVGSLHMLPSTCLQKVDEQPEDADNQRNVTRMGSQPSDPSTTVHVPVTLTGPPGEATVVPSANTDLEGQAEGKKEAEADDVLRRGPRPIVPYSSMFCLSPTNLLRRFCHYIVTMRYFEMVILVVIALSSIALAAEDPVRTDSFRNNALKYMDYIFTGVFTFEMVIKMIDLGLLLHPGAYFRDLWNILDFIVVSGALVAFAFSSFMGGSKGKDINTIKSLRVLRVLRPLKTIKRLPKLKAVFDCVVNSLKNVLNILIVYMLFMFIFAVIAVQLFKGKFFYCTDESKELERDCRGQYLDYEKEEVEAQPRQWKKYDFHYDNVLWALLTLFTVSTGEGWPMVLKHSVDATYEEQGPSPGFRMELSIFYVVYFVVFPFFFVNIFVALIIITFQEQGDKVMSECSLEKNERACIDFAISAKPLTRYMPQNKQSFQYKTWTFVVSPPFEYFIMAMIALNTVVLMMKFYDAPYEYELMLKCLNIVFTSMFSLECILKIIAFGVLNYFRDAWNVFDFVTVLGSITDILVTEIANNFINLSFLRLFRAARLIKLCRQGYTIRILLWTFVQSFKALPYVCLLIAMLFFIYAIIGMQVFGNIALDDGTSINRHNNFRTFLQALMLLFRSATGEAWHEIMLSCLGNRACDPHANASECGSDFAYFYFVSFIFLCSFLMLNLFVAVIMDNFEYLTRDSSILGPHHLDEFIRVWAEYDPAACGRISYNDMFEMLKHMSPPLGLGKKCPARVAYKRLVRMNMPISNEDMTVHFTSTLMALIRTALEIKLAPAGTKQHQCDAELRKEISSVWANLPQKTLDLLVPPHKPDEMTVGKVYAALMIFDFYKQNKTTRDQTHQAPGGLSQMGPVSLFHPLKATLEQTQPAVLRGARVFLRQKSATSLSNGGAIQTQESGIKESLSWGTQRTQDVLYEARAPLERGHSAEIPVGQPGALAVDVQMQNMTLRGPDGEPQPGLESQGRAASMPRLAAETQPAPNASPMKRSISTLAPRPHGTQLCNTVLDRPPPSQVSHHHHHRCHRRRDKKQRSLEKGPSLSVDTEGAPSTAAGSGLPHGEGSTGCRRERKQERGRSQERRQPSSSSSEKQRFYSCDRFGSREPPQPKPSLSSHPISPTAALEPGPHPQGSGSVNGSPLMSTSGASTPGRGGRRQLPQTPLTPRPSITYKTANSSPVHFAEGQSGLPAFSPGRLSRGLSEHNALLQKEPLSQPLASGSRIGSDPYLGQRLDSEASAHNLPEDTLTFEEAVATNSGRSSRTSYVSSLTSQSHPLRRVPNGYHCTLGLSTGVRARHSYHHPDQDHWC
Chain of P/Q-type calcium channels (O00555 whole entry, looked up): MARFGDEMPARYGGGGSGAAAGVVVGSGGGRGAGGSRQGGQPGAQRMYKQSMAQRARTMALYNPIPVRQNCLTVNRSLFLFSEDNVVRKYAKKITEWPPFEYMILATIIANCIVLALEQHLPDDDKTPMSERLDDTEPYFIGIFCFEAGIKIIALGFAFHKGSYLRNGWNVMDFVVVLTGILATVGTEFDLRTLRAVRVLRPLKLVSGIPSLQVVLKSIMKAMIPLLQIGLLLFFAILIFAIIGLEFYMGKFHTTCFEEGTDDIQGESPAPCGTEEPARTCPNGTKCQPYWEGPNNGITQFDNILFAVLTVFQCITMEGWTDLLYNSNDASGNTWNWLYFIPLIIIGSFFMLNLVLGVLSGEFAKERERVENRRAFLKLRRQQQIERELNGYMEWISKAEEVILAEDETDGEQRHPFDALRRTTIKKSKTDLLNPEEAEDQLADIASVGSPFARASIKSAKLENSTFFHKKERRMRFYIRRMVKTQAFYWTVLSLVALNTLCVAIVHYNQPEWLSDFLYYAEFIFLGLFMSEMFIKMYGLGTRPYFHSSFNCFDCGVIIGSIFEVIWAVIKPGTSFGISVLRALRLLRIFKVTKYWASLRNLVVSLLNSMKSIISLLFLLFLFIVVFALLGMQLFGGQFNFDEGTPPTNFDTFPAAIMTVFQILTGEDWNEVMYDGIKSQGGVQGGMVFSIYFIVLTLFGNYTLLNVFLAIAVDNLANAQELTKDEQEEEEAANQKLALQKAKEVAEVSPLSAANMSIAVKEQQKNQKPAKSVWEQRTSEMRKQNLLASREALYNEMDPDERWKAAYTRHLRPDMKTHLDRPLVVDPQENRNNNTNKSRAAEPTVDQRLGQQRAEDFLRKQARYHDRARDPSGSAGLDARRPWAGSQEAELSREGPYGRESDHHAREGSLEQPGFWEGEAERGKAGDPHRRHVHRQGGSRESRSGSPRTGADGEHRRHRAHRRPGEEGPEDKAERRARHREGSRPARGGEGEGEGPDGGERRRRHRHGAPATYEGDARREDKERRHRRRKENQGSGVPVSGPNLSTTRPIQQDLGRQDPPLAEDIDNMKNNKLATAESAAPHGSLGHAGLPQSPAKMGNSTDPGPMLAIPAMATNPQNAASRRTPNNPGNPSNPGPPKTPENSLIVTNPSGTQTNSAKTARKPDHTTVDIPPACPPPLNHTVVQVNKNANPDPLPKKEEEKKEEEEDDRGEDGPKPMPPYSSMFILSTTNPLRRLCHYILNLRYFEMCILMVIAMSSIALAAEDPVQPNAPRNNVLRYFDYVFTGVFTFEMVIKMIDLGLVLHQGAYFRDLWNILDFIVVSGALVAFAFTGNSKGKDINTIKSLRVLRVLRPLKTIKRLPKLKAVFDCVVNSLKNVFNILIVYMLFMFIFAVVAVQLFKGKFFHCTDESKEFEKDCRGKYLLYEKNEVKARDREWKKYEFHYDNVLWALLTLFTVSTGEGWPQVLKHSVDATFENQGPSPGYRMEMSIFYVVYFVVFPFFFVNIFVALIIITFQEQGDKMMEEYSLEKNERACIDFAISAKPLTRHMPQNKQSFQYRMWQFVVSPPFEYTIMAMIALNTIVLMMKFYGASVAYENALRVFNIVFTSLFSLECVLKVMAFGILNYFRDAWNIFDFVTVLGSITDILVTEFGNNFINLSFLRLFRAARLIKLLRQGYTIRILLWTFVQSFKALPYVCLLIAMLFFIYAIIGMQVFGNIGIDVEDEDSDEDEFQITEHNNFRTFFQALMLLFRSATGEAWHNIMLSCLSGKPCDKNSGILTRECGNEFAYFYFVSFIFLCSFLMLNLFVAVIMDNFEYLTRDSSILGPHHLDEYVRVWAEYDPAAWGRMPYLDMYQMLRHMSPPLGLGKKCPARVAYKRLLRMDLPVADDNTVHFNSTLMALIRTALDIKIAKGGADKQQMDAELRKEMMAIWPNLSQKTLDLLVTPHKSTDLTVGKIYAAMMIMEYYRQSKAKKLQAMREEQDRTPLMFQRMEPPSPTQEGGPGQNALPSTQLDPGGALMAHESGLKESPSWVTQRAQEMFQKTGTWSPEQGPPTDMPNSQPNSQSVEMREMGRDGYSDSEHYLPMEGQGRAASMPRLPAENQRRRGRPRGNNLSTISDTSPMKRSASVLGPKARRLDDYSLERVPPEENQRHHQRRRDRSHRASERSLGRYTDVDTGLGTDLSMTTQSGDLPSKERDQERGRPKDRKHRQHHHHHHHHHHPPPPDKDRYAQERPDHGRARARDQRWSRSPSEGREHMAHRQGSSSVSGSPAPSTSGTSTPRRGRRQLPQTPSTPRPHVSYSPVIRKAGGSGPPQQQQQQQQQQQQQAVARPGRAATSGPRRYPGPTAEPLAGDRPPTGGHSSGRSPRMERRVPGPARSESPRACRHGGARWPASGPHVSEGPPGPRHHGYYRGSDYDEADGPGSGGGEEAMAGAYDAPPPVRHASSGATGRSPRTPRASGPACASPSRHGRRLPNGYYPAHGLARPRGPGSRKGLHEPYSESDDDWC

As for “KKKCIAKDYGRCKWGGTPCCRGRGCICSIMGTNCECKPRLIMEGLGLA (disulfide 4-20, 12-25, 19-36, 27-34 (inferred)) [ω-Agatoxin, ω-Agatoxin IVA]”, the “relative binding affinity (order of displacement of [125I]GVIA binding)” value in assay [1] is recorded as “lowest relative binding affinity”. In addition, the “P/Q-type calcium channel inhibition or binding (description)” value in assay [2] (literature) is given as “has been shown to bind”.
ω-conotoxin GVIA: the “N-type calcium channel block (description)” value on N-type calcium channels is “potent and selective blocker”. The “relative binding affinity (order of displacement of [125I]GVIA binding)” value in assay [1] is listed as “highest relative binding affinity”.
On to ω-conotoxin MVIIC, for which the “N-type calcium channel block (description)” value at N-type calcium channels was “weak inhibitor”. Also, the “P/Q-type calcium channel inhibition or binding (description)” value in assay [2] is reported as “potent inhibitor”.

(Values after patent US7927820B2 (priority 2004, dated 2011).)
